Measured values as given in paper PMC3973950, “Synthesis of 5-arylidine amino-1,3,4-thiadiazol-2-[(N-substituted benzyol)]sulphonamides endowed with potent antioxidants and anticancer activity induces growth inhibition in HEK293, BT474 and NCI-H226 cells” (Medicinal Chemistry Research, 2013).

test system: not listed separately; experiment: In vitro cytotoxicity by MTT assay, HEK 293; assay type: cell-based, human; details: human, HEK 293 cells, 0.005 μM, read-out: % cytotoxicity (100 − % cell survival) of HEK 293 cell line
How it was run: (§1)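 Monolayers seeded at […] (about 10,000 per well) were treated after 24 h with the synthesized compounds and incubated three days. Viability was taken from MTT reduction, with formazan measured at 490 nm.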

Structure (SMILES)	cytotoxicity at 72 h, 0.005 µM [%]
NS(=O)(=O)c1ccc(S(=O)(=O)Nc2cccc3c(Cl)c[nH]c23)cc1 [ISL, indisulam, reference compound]	42.3

same assay, conditions: human, HEK 293 cells, 0.015 μM, read-out: % cytotoxicity (100 − % cell survival) of HEK 293 cell line

Structure (SMILES)	cytotoxicity at 72 h, 0.015 µM [%]
NS(=O)(=O)c1ccc(S(=O)(=O)Nc2cccc3c(Cl)c[nH]c23)cc1 [ISL, indisulam, reference compound]	46.9

same assay, conditions: human, HEK 293 cells, 0.045 μM, read-out: % cytotoxicity (100 − % cell survival) of HEK 293 cell line

Structure (SMILES)	cytotoxicity at 72 h, 0.045 µM [%]
NS(=O)(=O)c1ccc(S(=O)(=O)Nc2cccc3c(Cl)c[nH]c23)cc1 [ISL, indisulam, reference compound]	48.6

same assay, conditions: human, HEK 293 cells, 0.13 μM, read-out: % cytotoxicity (100 − % cell survival) of HEK 293 cell line

Structure (SMILES)	cytotoxicity at 72 h, 0.13 µM [%]
NS(=O)(=O)c1ccc(S(=O)(=O)Nc2cccc3c(Cl)c[nH]c23)cc1 [ISL, indisulam, reference compound]	50.1

same assay, conditions: human, HEK 293 cells, 0.41 μM, read-out: % cytotoxicity (100 − % cell survival) of HEK 293 cell line

Structure (SMILES)	cytotoxicity at 72 h, 0.41 µM [%]
NS(=O)(=O)c1ccc(S(=O)(=O)Nc2cccc3c(Cl)c[nH]c23)cc1 [ISL, indisulam, reference compound]	51.1

same assay, conditions: human, HEK 293 cells, 1.23 μM, read-out: % cytotoxicity (100 − % cell survival) of HEK 293 cell line

Structure (SMILES)	cytotoxicity at 72 h, 1.23 µM [%]
NS(=O)(=O)c1ccc(S(=O)(=O)Nc2cccc3c(Cl)c[nH]c23)cc1 [ISL, indisulam, reference compound]	52.2

same assay, conditions: human, HEK 293 cells, 3.7 μM, read-out: % cytotoxicity (100 − % cell survival) of HEK 293 cell line

Structure (SMILES)	cytotoxicity at 72 h, 3.7 µM [%]
NS(=O)(=O)c1ccc(S(=O)(=O)Nc2cccc3c(Cl)c[nH]c23)cc1 [ISL, indisulam, reference compound]	55.4

same assay, conditions: human, HEK 293 cells, 11.11 μM, read-out: % cytotoxicity (100 − % cell survival) of HEK 293 cell line

Structure (SMILES)	cytotoxicity at 72 h, 11.11 µM [%]
NS(=O)(=O)c1ccc(S(=O)(=O)Nc2cccc3c(Cl)c[nH]c23)cc1 [ISL, indisulam, reference compound]	57.8

same assay, conditions: human, HEK 293 cells, 33.33 μM, read-out: % cytotoxicity (100 − % cell survival) of HEK 293 cell line

Structure (SMILES)	cytotoxicity at 72 h, 33.33 µM [%]
NS(=O)(=O)c1ccc(S(=O)(=O)Nc2cccc3c(Cl)c[nH]c23)cc1 [ISL, indisulam, reference compound]	61.2

same assay, conditions: human, HEK 293 cells, 100 μM, read-out: % cytotoxicity (100 − % cell survival) of HEK 293 cell line

Structure (SMILES)	cytotoxicity at 72 h, 100 µM [%]
NS(=O)(=O)c1ccc(S(=O)(=O)Nc2cccc3c(Cl)c[nH]c23)cc1 [ISL, indisulam, reference compound]	69.4

test system: BT474 (breast cancer cell line); experiment: In vitro cytotoxicity by MTT assay, BT474; assay type: cell-based; details: Homo sapiens, BT-474, 0.005 μM, 72 h, read-out: % cytotoxicity (100 − % cell survival) of BT474 cell line
How it was run: as §1

Structure (SMILES)	cytotoxicity at 0.005 µM [%]
NS(=O)(=O)c1ccc(S(=O)(=O)Nc2cccc3c(Cl)c[nH]c23)cc1 [ISL, indisulam, reference compound]	42.2

same assay, conditions: Homo sapiens, BT-474, 0.015 μM, 72 h, read-out: % cytotoxicity (100 − % cell survival) of BT474 cell line

Structure (SMILES)	cytotoxicity at 0.015 µM [%]
NS(=O)(=O)c1ccc(S(=O)(=O)Nc2cccc3c(Cl)c[nH]c23)cc1 [ISL, indisulam, reference compound]	45

same assay, conditions: Homo sapiens, BT-474, 0.045 μM, 72 h, read-out: % cytotoxicity (100 − % cell survival) of BT474 cell line

Structure (SMILES)	cytotoxicity at 0.045 µM [%]
NS(=O)(=O)c1ccc(S(=O)(=O)Nc2cccc3c(Cl)c[nH]c23)cc1 [ISL, indisulam, reference compound]	46.4

same assay, conditions: Homo sapiens, BT-474, 0.13 μM, 72 h, read-out: % cytotoxicity (100 − % cell survival) of BT474 cell line

Structure (SMILES)	cytotoxicity at 0.13 µM [%]
NS(=O)(=O)c1ccc(S(=O)(=O)Nc2cccc3c(Cl)c[nH]c23)cc1 [ISL, indisulam, reference compound]	49

same assay, conditions: Homo sapiens, BT-474, 0.41 μM, 72 h, read-out: % cytotoxicity (100 − % cell survival) of BT474 cell line

Structure (SMILES)	cytotoxicity at 0.41 µM [%]
NS(=O)(=O)c1ccc(S(=O)(=O)Nc2cccc3c(Cl)c[nH]c23)cc1 [ISL, indisulam, reference compound]	50.8

same assay, conditions: Homo sapiens, BT-474, 1.23 μM, 72 h, read-out: % cytotoxicity (100 − % cell survival) of BT474 cell line

Structure (SMILES)	cytotoxicity at 1.23 µM [%]
NS(=O)(=O)c1ccc(S(=O)(=O)Nc2cccc3c(Cl)c[nH]c23)cc1 [ISL, indisulam, reference compound]	52.9

same assay, conditions: Homo sapiens, BT-474, 3.7 μM, 72 h, read-out: % cytotoxicity (100 − % cell survival) of BT474 cell line

Structure (SMILES)	cytotoxicity at 3.7 µM [%]
NS(=O)(=O)c1ccc(S(=O)(=O)Nc2cccc3c(Cl)c[nH]c23)cc1 [ISL, indisulam, reference compound]	54.7

same assay, conditions: Homo sapiens, BT-474, 11.11 μM, 72 h, read-out: % cytotoxicity (100 − % cell survival) of BT474 cell line

Structure (SMILES)	cytotoxicity at 11.11 µM [%]
NS(=O)(=O)c1ccc(S(=O)(=O)Nc2cccc3c(Cl)c[nH]c23)cc1 [ISL, indisulam, reference compound]	62.5

same assay, conditions: Homo sapiens, BT-474, 33.33 μM, 72 h, read-out: % cytotoxicity (100 − % cell survival) of BT474 cell line

Structure (SMILES)	cytotoxicity at 33.33 µM [%]
NS(=O)(=O)c1ccc(S(=O)(=O)Nc2cccc3c(Cl)c[nH]c23)cc1 [ISL, indisulam, reference compound]	66.1

same assay, conditions: Homo sapiens, BT-474, 100 μM, 72 h, read-out: % cytotoxicity (100 − % cell survival) of BT474 cell line

Structure (SMILES)	cytotoxicity at 100 µM [%]
NS(=O)(=O)c1ccc(S(=O)(=O)Nc2cccc3c(Cl)c[nH]c23)cc1 [ISL, indisulam, reference compound]	73.5

test system: not listed separately; experiment: In vitro cytotoxicity by MTT assay, NCI-H226; assay type: cell-based; details: human, NCI-H226 lung cancer cells, 0.015 μM, read-out: % Cytotoxicity (100 − % cell survival) of NCI-H226 cell line
How it was run: as §1

Structure (SMILES)	cytotoxicity at 72 h, 0.015 µM [%]
NS(=O)(=O)c1ccc(S(=O)(=O)Nc2cccc3c(Cl)c[nH]c23)cc1 [ISL, indisulam, reference compound]	28.4

test system: NCI-H226 (lung cancer cell line); experiment: In vitro cytotoxicity by MTT assay, NCI-H226; assay type: cell-based; details: Homo sapiens, NCI-H226, 0.005 μM, 72 h, read-out: % Cytotoxicity (100 − % cell survival) of NCI-H226 cell line
How it was run: as §1

Structure (SMILES)	cytotoxicity at 0.005 µM [%]
NS(=O)(=O)c1ccc(S(=O)(=O)Nc2cccc3c(Cl)c[nH]c23)cc1 [ISL, indisulam, reference compound]	26.4

same assay, conditions: Homo sapiens, NCI-H226, 0.045 μM, 72 h, read-out: % Cytotoxicity (100 − % cell survival) of NCI-H226 cell line

Structure (SMILES)	cytotoxicity at 0.045 µM [%]
NS(=O)(=O)c1ccc(S(=O)(=O)Nc2cccc3c(Cl)c[nH]c23)cc1 [ISL, indisulam, reference compound]	30.2

same assay, conditions: Homo sapiens, NCI-H226, 0.13 μM, 72 h, read-out: % Cytotoxicity (100 − % cell survival) of NCI-H226 cell line

Structure (SMILES)	cytotoxicity at 0.13 µM [%]
NS(=O)(=O)c1ccc(S(=O)(=O)Nc2cccc3c(Cl)c[nH]c23)cc1 [ISL, indisulam, reference compound]	31.1

same assay, conditions: Homo sapiens, NCI-H226, 0.41 μM, 72 h, read-out: % Cytotoxicity (100 − % cell survival) of NCI-H226 cell line

Structure (SMILES)	cytotoxicity at 0.41 µM [%]
NS(=O)(=O)c1ccc(S(=O)(=O)Nc2cccc3c(Cl)c[nH]c23)cc1 [ISL, indisulam, reference compound]	33

same assay, conditions: Homo sapiens, NCI-H226, 1.23 μM, 72 h, read-out: % Cytotoxicity (100 − % cell survival) of NCI-H226 cell line

Structure (SMILES)	cytotoxicity at 1.23 µM [%]
NS(=O)(=O)c1ccc(S(=O)(=O)Nc2cccc3c(Cl)c[nH]c23)cc1 [ISL, indisulam, reference compound]	34.1

same assay, conditions: Homo sapiens, NCI-H226, 3.7 μM, 72 h, read-out: % Cytotoxicity (100 − % cell survival) of NCI-H226 cell line

Structure (SMILES)	cytotoxicity at 3.7 µM [%]
NS(=O)(=O)c1ccc(S(=O)(=O)Nc2cccc3c(Cl)c[nH]c23)cc1 [ISL, indisulam, reference compound]	36.5

same assay, conditions: Homo sapiens, NCI-H226, 11.11 μM, 72 h, read-out: % Cytotoxicity (100 − % cell survival) of NCI-H226 cell line

Structure (SMILES)	cytotoxicity at 11.11 µM [%]
NS(=O)(=O)c1ccc(S(=O)(=O)Nc2cccc3c(Cl)c[nH]c23)cc1 [ISL, indisulam, reference compound]	38.6

same assay, conditions: Homo sapiens, NCI-H226, 33.33 μM, 72 h, read-out: % Cytotoxicity (100 − % cell survival) of NCI-H226 cell line

Structure (SMILES)	cytotoxicity at 33.33 µM [%]
NS(=O)(=O)c1ccc(S(=O)(=O)Nc2cccc3c(Cl)c[nH]c23)cc1 [ISL, indisulam, reference compound]	44.7

same assay, conditions: Homo sapiens, NCI-H226, 100 μM, 72 h, read-out: % Cytotoxicity (100 − % cell survival) of NCI-H226 cell line

Structure (SMILES)	cytotoxicity at 100 µM [%]
NS(=O)(=O)c1ccc(S(=O)(=O)Nc2cccc3c(Cl)c[nH]c23)cc1 [ISL, indisulam, reference compound]	59.3
